11 molecules from DBAASP can be followed below.

By MIC is commonly meant the least concentration at which growth counts as inhibited. A high value points to weaker potency.

Among the test systems are Escherichia coli UB1005; Candida albicans; Staphylococcus aureus; Escherichia coli; Bacillus subtilis; Acinetobacter baumannii.
Test in all cases: ≥ marks a high value that may be exact or a test limit, other limits are often not marked, values filed in µg/mL are converted to µM
The subject of test [1] is Pseudomonas aeruginosa ATCC 9027.
In test [2] the test system is Staphylococcus aureus ATCC 6538.
Test [3] relates to Staphylococcus epidermidis ATCC 12228.
In test [4] the test system is Enterococcus faecalis ATCC 29212.
Test [5] relates to Salmonella enterica subsp. enterica serovar Typhimurium C77-31.
Test [6] relates to Staphylococcus aureus ATCC 29213.
The test system of test [7] is Staphylococcus aureus ATCC 25923.
The test system of test [8] is Escherichia coli ATCC 25922.
For test [9], the system named is Acinetobacter baumannii ATCC 19606.

≈ marks a conversion by molar mass, not a printed value.

In the case of `CC(C)C[C@H](NC(=O)[C@H](C)NC(=O)[C@H](CCCCN)NC(=O)[C@H](CCCCN)NC(=O)[C@H](Cc1ccccc1)NC(=O)[C@H](C)NC(=O)[C@H](CCCCN)NC(=O)[C@H](C)NC(=O)[C@H](CC(C)C)NC(=O)[C@H](CC(C)C)NC(=O)[C@H](CCCCN)NC(=O)[C@H](C)NC(=O)[C@@H](N)Cc1ccccc1)C(N)=O` [FAKLLAKAFKKAL], the minimum inhibitory concentration (MIC) amounted to 10.4 µM (≈ 15 µg/mL) in test [1] and 34.5 µM (≈ 50 µg/mL) in [2].

As for `CC[C@H](C)[C@H](NC(=O)[C@H](CCCCN)NC(=O)[C@H](CCCCN)NC(=O)[C@H](CC(C)C)NC(=O)[C@H](CCCN=C(N)N)NC(=O)[C@@H]1CSSC[C@H](NC(=O)[C@H](CCCN=C(N)N)NC(=O)[C@H](CC(C)C)NC(=O)[C@H](CCCN=C(N)N)NC(=O)[C@H](CCCN=C(N)N)NC(=O)[C@H](Cc2ccccc2)NC(=O)[C@@H](N)CCCN=C(N)N)C(=O)N[C@@H](CCCCN)C(=O)N[C@@H]([C@@H](C)O)C(=O)N[C@@H](CCCN=C(N)N)C(=O)N1)C(N)=O` [RFRRLRCKTRCRLKKI], the MIC against Escherichia coli UB1005 was at least 128 µM; in test [3], above 128 µM; in test [4] it was above 128 µM; in test [5], at least 128 µM; in test [6], above 128 µM.

Take `CC[C@H](C)[C@H](NC(=O)[C@H](Cc1c[nH]c2ccccc12)NC(=O)[C@H](CCCCN)NC(=O)[C@H](CC(C)C)NC(=O)[C@@H](NC(=O)[C@H](CCCCN)NC(=O)CNC(=O)[C@@H](NC(=O)[C@@H](NC(=O)[C@H](CCCCN)NC(=O)[C@H](CC(C)C)NC(=O)[C@@H](NC(=O)[C@@H](NC(=O)[C@H](CCCN=C(N)N)NC(=O)[C@@H](NC(=O)[C@@H](NC(=O)[C@H](CCCCN)NC(=O)[C@H](CCCN=C(N)N)NC(=O)[C@H](CC(C)C)NC(=O)[C@@H](NC(=O)[C@H](CCCN=C(N)N)NC(=O)[C@H](Cc1ccccc1)NC(=O)[C@@H](NC(=O)CN)C(C)C)C(C)C)C(C)C)[C@@H](C)O)C(C)C)C(C)C)C(C)C)[C@@H](C)CC)C(C)C)C(N)=O` [GVFRVLRKVTRVVLKVIGKVLKWI]: the MIC in the test on Escherichia coli UB1005 amounted to 4 µM (≈ 11.2 µg/mL); in test [3] it was 2 µM (≈ 5.61 µg/mL); in [7], 2 µM (≈ 5.61 µg/mL); in test [8], 2 µM (≈ 5.61 µg/mL); in test [5], 4 µM (≈ 11.2 µg/mL); in test [6], 2 µM (≈ 5.61 µg/mL).

As to `CC(C)C[C@H](NC(=O)[C@H](C)NC(=O)[C@H](CCCCN)NC(=O)[C@H](C)NC(=O)[C@H](CC(C)C)NC(=O)[C@H](CCCCN)NC(=O)[C@H](CCCCN)NC(=O)[C@H](C)NC(=O)[C@H](CC(C)C)NC(=O)[C@H](CCCCN)NC(=O)[C@H](CCCCN)NC(=O)[C@H](C)NC(=O)[C@@H](N)Cc1ccccc1)C(N)=O` [FAKKLAKKLAKAL], the minimum inhibitory concentration (MIC) was 3.5 µM (≈ 5 µg/mL) in test [1] and 10.5 µM (≈ 15 µg/mL) in test [2].

On to `CC[C@H](C)[C@H](NC(=O)CNC(=O)[C@H](CCCCN)NC(=O)[C@@H](NC(=O)[C@H](CC(C)C)NC(=O)[C@H](CO)NC(=O)CNC(=O)[C@H](CC(C)C)NC(=O)CNC(=O)[C@H](C)NC(=O)[C@H](CCCCN)NC(=O)[C@H](CC(C)C)NC(=O)[C@@H](NC(=O)[C@H](CCC(=O)O)NC(=O)[C@H](CCCCN)NC(=O)[C@H](Cc1ccccc1)NC(=O)CN)C(C)C)C(C)C)C(=O)N1CCC[C@H]1C(=O)N[C@@H](C)C(=O)N[C@@H](Cc1cnc[nH]1)C(=O)N[C@H](C(=O)N[C@@H](C)C(=O)N[C@@H](CC(N)=O)C(N)=O)C(C)C` [GFKEVLKAGLGSLVKGIPAHVAN], for which the MIC against Candida albicans is above 400 µM; with Staphylococcus aureus it was 434 µM (≈ 1000 µg/mL); in the test on Escherichia coli, 217 µM (≈ 500 µg/mL).

As for `CC[C@H](C)[C@H](N)C(=O)N[C@@H](CC(N)=O)C(=O)N[C@@H](Cc1c[nH]c2ccccc12)C(=O)N[C@@H](CO)C(=O)N[C@@H](CO)C(=O)N[C@H](C(=O)N[C@@H](Cc1ccccc1)C(=O)N[C@@H](CCC(=O)O)C(=O)N[C@@H](CO)C(=O)N[C@H](C(=O)N[C@@H](CCCCN)C(=O)N[C@@H](CC(N)=O)C(=O)N[C@@H](CC(C)C)C(=O)N[C@H](C(N)=O)C(C)C)C(C)C)[C@@H](C)CC` [INWSSIFESVKNLV], the MIC in the test on Bacillus subtilis is at least 87.5 µM; in the test with Escherichia coli, 100 µM (≈ 163 µg/mL).

Regarding `CC[C@H](C)[C@H](NC(=O)[C@H](CCCN=C(N)N)NC(=O)[C@@H](NC(=O)[C@@H](NC(=O)[C@@H]1CCCN1C(=O)[C@@H](NC(=O)[C@@H](NC(=O)[C@@H](NC(=O)[C@@H]1CCCN1C(=O)CNC(=O)[C@H](Cc1ccc(O)cc1)NC(=O)[C@H](CCCCN)NC(=O)[C@H](CCCCN)NC(=O)[C@H](Cc1c[nH]c2ccccc12)NC(=O)[C@H](C)NC(=O)[C@H](CCCN=C(N)N)NC(=O)[C@H](CC(C)C)NC(=O)[C@@H](NC(=O)[C@H](CCCCN)NC(=O)[C@H](CCCN=C(N)N)NC(=O)CNC(=O)[C@H](CC(C)C)NC(=O)[C@H](CCCCN)NC(=O)[C@H](CCCN=C(N)N)NC(=O)[C@H](CC(C)C)NC(=O)CNC(=O)CN)[C@@H](C)CC)[C@@H](C)CC)[C@@H](C)CC)C(C)C)[C@@H](C)CC)[C@@H](C)CC)C(=O)O` [GGLRKLGRKILRAWKKYGPIIVPIIRI], the minimum inhibitory concentration (MIC) came to 6.42 µM (≈ 20 µg/mL) in the test on Acinetobacter baumannii and 3.21 µM (≈ 10 µg/mL) in [9].

For the molecule `CC[C@H](C)[C@H](N)C(=O)N[C@@H](CC(N)=O)C(=O)N[C@@H](Cc1c[nH]c2ccccc12)C(=O)N[C@@H](CC(C)C)C(=O)N[C@@H](CCCCN)C(=O)N[C@@H](CC(C)C)C(=O)NCC(=O)N[C@@H](CCCCN)C(=O)N[C@@H](CCCCN)C(=O)N[C@@H](CCSC)C(=O)N[C@@H](CCSC)C(=O)N[C@@H](CO)C(=O)N[C@@H](C)C(=O)N[C@H](C(N)=O)[C@@H](C)CC` [INWLKLGKKMMSAI], the minimum inhibitory concentration (MIC) in the test with Bacillus subtilis is at least 35 µM; with Escherichia coli, 70 µM (≈ 114 µg/mL).

Consider `CC(C)C[C@H](NC(=O)[C@H](CCCCN)NC(=O)[C@H](CCCCN)NC(=O)[C@H](C)NC(=O)[C@H](CC(C)C)NC(=O)[C@H](CCCCN)NC(=O)[C@H](C)NC(=O)[C@H](CC(C)C)NC(=O)[C@H](CCCCN)NC(=O)[C@H](CCCCN)NC(=O)[C@H](C)NC(=O)[C@@H](N)Cc1ccccc1)C(N)=O` [FAKKLAKLAKKL], for which the minimum inhibitory concentration (MIC) in test [1] came to 18.4 µM (≈ 25 µg/mL); in [2], 73.6 µM (≈ 99.9 µg/mL).

Take `CC(C)C[C@H](NC(=O)[C@H](CCCCN)NC(=O)[C@H](CCCCN)NC(=O)[C@H](C)NC(=O)[C@H](CC(C)C)NC(=O)[C@H](CCCCN)NC(=O)[C@H](C)NC(=O)[C@H](CC(C)C)NC(=O)[C@H](CC(C)C)NC(=O)[C@H](CCCCN)NC(=O)[C@H](C)NC(=O)[C@@H](N)Cc1ccccc1)C(N)=O` [FAKLLAKLAKKL]: the MIC in test [1] was 149 µM (≈ 200 µg/mL); in test [2], 7.44 µM (≈ 9.99 µg/mL).

`CC[C@H](C)[C@H](NC(=O)CNC(=O)[C@H](CC(C)C)NC(=O)[C@H](CCCCN)NC(=O)[C@H](C)NC(=O)[C@H](CC(C)C)NC(=O)[C@H](C)NC(=O)[C@@H](NC(=O)[C@H](CCCCN)NC(=O)[C@H](C)NC(=O)[C@@H](NC(=O)[C@@H](N)CCCCN)[C@@H](C)CC)C(C)C)C(=O)NCC(=O)N[C@@H](C)C(=O)N[C@H](C(=O)N[C@@H](CC(C)C)C(=O)N[C@@H](CCCCN)C(=O)N[C@H](C(=O)N[C@@H](CC(C)C)C(=O)N[C@H](C(=O)N[C@H](C(=O)NCC(=O)N[C@@H](CC(C)C)C(N)=O)[C@@H](C)O)[C@@H](C)O)C(C)C)C(C)C` [KIAKVALAKLGIGAVLKVLTTGL]: the MIC in test [1] and in test [2] was 87.8 µM (≈ 200 µg/mL) in each case.
